Reference: PubChem BioAssay AID328 (DTP/NCI, 2004)
Several values for one entry are separate records, joined by “and”; a condition that tells them apart may be missing. Identical values can stand only once. Inconclusive results and toxic doses are left out. Starred links: 1 amine or outer side, 2 acyl side, 3 side chain; linkers in the order of their positions; H or OH if unused. Positions of bridges follow the written chain, without caps; N, C: chain ends. Non-standard residues stand in square brackets, D forms with d. Residues, ends and D or L forms follow the SMILES beside them. Chains are numbered I, II in the order given. Actinocin(9to1) = Cc1c2oc3c(C)ccc(C(=O)[*:1])c3nc-2c(C(=O)[*:2])c(N)c1=O; NMeV = CN[CH](C(=O)O)C(C)C; Pip = O=C(O)[CH]1CCCCN1; Sar = CNCC(=O)O

Test system: BDF1 mice, P388 leukemia ip, median survival T/C
Experiment: NCI In Vivo Anticancer Drug Screen. Data for tumor model P388 Leukemia (intraperitoneal) in B6D2F1 (BDF1) mice
Conditions: endpoint: median survival time, higher = longer survival
Outline: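 Transplantable tumour in mice; compound vs vehicle dosing; survival scored; ratio of treated to control reported.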

[1] = dose: 25.0 mg/kg/injection, schedule: Q04DX003 (ip), vehicle: saline with Tween-80
[2] = dose: 100.0 mg/kg/injection, schedule: Q04DX003 (ip), vehicle: saline with Tween-80
[3] = dose: 200.0 mg/kg/injection, schedule: Q04DX003 (ip), vehicle: saline with Tween-80
[4] = dose: 50.0 mg/kg/injection, schedule: Q01DX009 (ip), vehicle: saline with Tween-80
[5] = dose: 100.0 mg/kg/injection, schedule: Q01DX009 (ip), vehicle: saline with Tween-80
[6] = dose: 200.0 mg/kg/injection, schedule: Q01DX009 (ip), vehicle: saline with Tween-80
[7] = dose: 50.0 mg/kg/injection, schedule: Q04DX003 (ip), vehicle: saline with Tween-80
[8] = dose: 400.0 mg/kg/injection, schedule: Q04DX003 (ip), vehicle: saline with Tween-80
[9] = dose: 25.0 mg/kg/injection, schedule: Q01DX009 (ip), vehicle: saline with Tween-80
[10] = dose: 25.0 mg/kg/injection, schedule: Q01DX009 (ip), vehicle: saline
[11] = dose: 50.0 mg/kg/injection, schedule: Q01DX009 (ip), vehicle: saline
[12] = dose: 100.0 mg/kg/injection, schedule: Q04DX003 (ip), vehicle: saline
[13] = dose: 50.0 mg/kg/injection, schedule: Q04DX003 (ip), vehicle: saline

Structure (SMILES): COC(=O)c1[nH]c(=O)[nH]c(=O)c1F
- T/C [1]: 113 % of control
- T/C [2]: 122 % of control
- T/C [3]: 90 % of control

Structure (SMILES): O=C1Nc2ccccc2SC1C1SC(=S)N(Cc2ccccc2)C1=O (stereo not given)
- T/C [4]: 102 % of control
- T/C [5]: 86 % of control
- T/C [6]: 86 % of control

Structure (SMILES): Nc1nc(=O)[nH]c(N)c1N=O
- T/C [1]: 98 % of control
- T/C [7]: 107 % of control
- T/C [2]: 100 % of control
- T/C [3]: 100 % of control
- T/C [8]: 102 % of control

Structure (SMILES): CSc1cccc(NC(=O)Oc2cc(C)c(Cl)c(C)c2Cl)c1
- T/C (dose: 6.25 mg/kg/injection, schedule: Q01DX009 (ip), vehicle: DMSO): 117 % of control
- T/C (dose: 12.5 mg/kg/injection, schedule: Q01DX009 (ip), vehicle: DMSO): 102 % of control

Structure (SMILES): C=C(C)C1CCC2=CC(CC3(C)OC3C3=CC(C(=O)OC)=C(C1)O3)OC2=O (stereo not given)
- T/C (dose: 50.0 mg/kg/injection, schedule: Q01DX009 (ip), vehicle: Klucel (hydroxypropylcellulose) (HPC)): 86 % of control

Structure (SMILES): O=C(O)CCNSc1ccccc1[N+](=O)[O-]
- T/C [4]: 106 % of control
- T/C [5]: 106 % of control

Structure (SMILES): O=S(=O)(c1ccccc1)N1CN2CCN(C2)C1
- T/C [4]: 107 % of control
- T/C [5]: 124 % of control

Structure (SMILES): NC(N)=Nc1ccc(C(=O)Oc2ccc([N+](=O)[O-])cc2CN2CCCCC2)cc1
- T/C (dose: 0.78 mg/kg/injection, schedule: Q01DX009 (ip), vehicle: water): 101 % of control
- T/C (dose: 0.78 mg/kg/injection, schedule: Q04DX003 (ip), vehicle: water): 100 % of control
- T/C (dose: 1.56 mg/kg/injection, schedule: Q01DX009 (ip), vehicle: water): 93 % of control
- T/C (dose: 1.56 mg/kg/injection, schedule: Q04DX003 (ip), vehicle: water): 105 % of control
- T/C (dose: 3.12 mg/kg/injection, schedule: Q01DX009 (ip), vehicle: water): 100 % of control
- T/C (dose: 3.12 mg/kg/injection, schedule: Q04DX003 (ip), vehicle: water): 113 % of control
- T/C (dose: 6.25 mg/kg/injection, schedule: Q01DX009 (ip), vehicle: water): 104 % of control
- T/C (dose: 6.25 mg/kg/injection, schedule: Q04DX003 (ip), vehicle: water): 104 % of control
- T/C (dose: 12.5 mg/kg/injection, schedule: Q04DX003 (ip), vehicle: water): 95 % of control

Structure (SMILES): CN(C)[C@@H]1C(=O)C(C(=O)NCN2CCN(C(=N)N=C(N)N)CC2)=C(O)[C@@]2(O)C(=O)C3=C(O)c4c(O)cccc4[C@@](C)(O)[C@H]3C[C@@H]12
- T/C (dose: 0.1 mg/kg/injection, schedule: Q04DX003 (ip), vehicle: saline): 124 % of control
- T/C (dose: 1.0 mg/kg/injection, schedule: Q04DX003 (ip), vehicle: saline): 120 % of control
- T/C (dose: 5.0 mg/kg/injection, schedule: Q04DX003 (ip), vehicle: saline): 155 % of control

Structure (SMILES): CCOC(=O)N1CCN(CCCOc2ccc(Cl)cc2Cc2ccccc2)CC1
- T/C [4]: 96 % of control
- T/C [5]: 96 % of control
- T/C [6]: 105 % of control

Structure (SMILES): O=C1NC(=O)C(c2ccc(C(F)(F)F)cc2)(c2ccc(C(F)(F)F)cc2)N1
- T/C (dose: 12.5 mg/kg/injection, schedule: Q01DX009 (ip), vehicle: saline with Tween-80): 104 % of control
- T/C [9]: 90 % of control
- T/C [4]: 113 % of control
- T/C [2]: 90 % of control
- T/C [3]: 90 % of control
- T/C [8]: 104 % of control

Structure (SMILES): CC(C)CC(=O)C1=C(O)C(Nc2ccccc2)=CC(=O)C1=Nc1ccccc1
- T/C [2]: 106 % of control
- T/C [3]: 118 % of control
- T/C [8]: 111 % of control

Structure (SMILES): O=C(O)c1ccccc1P12(OC(=O)c3ccccc31)OC(=O)c1ccccc12
- T/C [9]: 99 % of control
- T/C [4]: 99 % of control
- T/C [5]: 90 % of control

Structure (SMILES): O=C(C1=Cc2ccccc2OC1)N1CCN(C(=O)C2=Cc3ccccc3OC2)CC1
- T/C [2]: 91 % of control
- T/C [3]: 91 % of control
- T/C [8]: 86 % of control

Structure (SMILES): Cc1cc(C=O)c(O)c(C=O)c1
- T/C (dose: 100.0 mg/kg/injection, schedule: Q04DX002 (ip), vehicle: saline with Tween-80): 112 % of control
- T/C (dose: 200.0 mg/kg/injection, schedule: Q04DX002 (ip), vehicle: saline with Tween-80): 110 % of control
- T/C (dose: 400.0 mg/kg/injection, schedule: Q04DX002 (ip), vehicle: saline with Tween-80): 109 % of control

Structure (SMILES): CCOC(=O)c1c(N)ssc1=S
- T/C (dose: 6.25 mg/kg/injection, schedule: Q01DX009 (ip), vehicle: saline): 101 % of control
- T/C (dose: 12.5 mg/kg/injection, schedule: Q01DX009 (ip), vehicle: saline): 113 % of control
- T/C [10]: 100 % of control
- T/C [11]: 111 % of control
- T/C (dose: 100.0 mg/kg/injection, schedule: Q01DX009 (ip), vehicle: saline): 113 % of control
- T/C [12]: 112 % of control
- T/C (dose: 200.0 mg/kg/injection, schedule: Q01DX009 (ip), vehicle: saline): 93 % of control and 104 % of control
- T/C (dose: 200.0 mg/kg/injection, schedule: Q04DX003 (ip), vehicle: saline): 86 % of control
- T/C (dose: 300.0 mg/kg/injection, schedule: Q01DX009 (ip), vehicle: saline): 91 % of control

Structure (SMILES): CCCCCCCCCCCCCCSCCSCCSCCCCCCCCCCCCCC
- T/C (dose: 25.0 mg/kg/injection, schedule: Q01DX001 (ip), vehicle: saline sonified): 86 % of control
- T/C (dose: 100.0 mg/kg/injection, schedule: Q01DX001 (ip), vehicle: saline sonified): 86 % of control

Structure (SMILES): CCCCCCC(=O)/C=C/c1cccc(O)c1
- T/C [4]: 104 % of control
- T/C [5]: 104 % of control
- T/C [6]: 95 % of control

Structure (SMILES): CCOC(=O)N(C)C(C)Cc1ccccc1 (stereo not given)
- T/C [4]: 105 % of control
- T/C [5]: 118 % of control

Structure (SMILES): O=C(NCCCCN1CC1)C(=O)NCCCCN1CC1
- T/C (dose: 6.25 mg/kg/injection, schedule: Q04DX003 (ip), vehicle: Klucel (hydroxypropylcellulose) (HPC)): 188 % of control
- T/C (dose: 12.5 mg/kg/injection, schedule: Q04DX003 (ip), vehicle: Klucel (hydroxypropylcellulose) (HPC)): 188 % of control
- T/C (dose: 25.0 mg/kg/injection, schedule: Q04DX003 (ip), vehicle: Klucel (hydroxypropylcellulose) (HPC)): 221 % of control

Structure (SMILES): Cc1c2oc3c(C)ccc(C(=O)NC4C(=O)NC(C(C)C)C(=O)N5CCCCC5C(=O)N(C)CC(=O)N(C)C(C(C)C)C(=O)OC4C)c3nc-2c(C(=O)NC2C(=O)NC(C(C)C)C(=O)N3CCCCC3C(=O)N(C)CC(=O)N(C)C(C(C)C)C(=O)OC2C)c(N)c1=O (stereo not given) (I: TV[Pip][Sar][NMeV] / II: TV[Pip][Sar][NMeV]; ester I:1-I:C, II:1-II:C; linker I:N-II:N via Actinocin(9to1); configuration not given here)
- T/C (dose: 0.25 mg/kg/injection, schedule: Q01DX009 (ip), vehicle: saline + alcohol): 114 % of control
- T/C (dose: 0.75 mg/kg/injection, schedule: Q04DX003 (ip), vehicle: saline + alcohol): 116 % of control
- T/C (dose: 2.0 mg/kg/injection, schedule: Q01DX009 (ip), vehicle: saline + alcohol): 162 % of control
- T/C (dose: 4.0 mg/kg/injection, schedule: Q01DX009 (ip), vehicle: saline + alcohol): 180 % of control
- T/C (dose: 6.0 mg/kg/injection, schedule: Q04DX003 (ip), vehicle: saline + alcohol): 160 % of control
- T/C (dose: 12.0 mg/kg/injection, schedule: Q04DX003 (ip), vehicle: saline + alcohol): 155 % of control

Structure (SMILES): N=C([Se])c1ncn(C2OC(CO)C(O)C2O)c1N (stereo not given)
- T/C (dose: 6.25 mg/kg/injection, schedule: Q04DX003 (ip), vehicle: saline): 106 % of control
- T/C (dose: 12.5 mg/kg/injection, schedule: Q04DX003 (ip), vehicle: saline): 108 % of control
- T/C (dose: 25.0 mg/kg/injection, schedule: Q04DX003 (ip), vehicle: saline): 111 % of control
- T/C [13]: 106 % of control

Structure (SMILES): ClC1OCCOC1Cl (stereo not given)
- T/C [10]: 96 % of control
- T/C [11]: 100 % of control
- T/C [13]: 105 % of control
- T/C [12]: 110 % of control

Structure (SMILES): CCN(CC)Cc1nc2nc(Cl)c(Cl)nc2[nH]1
- T/C (dose: 5.0 mg/kg/injection, schedule: Q01DX009 (ip), vehicle: saline with Tween-80): 112 % of control
- T/C (dose: 10.0 mg/kg/injection, schedule: Q01DX009 (ip), vehicle: saline with Tween-80): 114 % of control
- T/C (dose: 12.5 mg/kg/injection, schedule: Q04DX003 (ip), vehicle: saline with Tween-80): 114 % of control
- T/C (dose: 20.0 mg/kg/injection, schedule: Q01DX009 (ip), vehicle: saline with Tween-80): 98 % of control
- T/C [1]: 100 % of control and 114 % of control
- T/C [7]: 88 % of control and 100 % of control and 104 % of control

Structure (SMILES): CC(C)(C)c1cc(C(=O)O)c(Sc2c(C(=O)O)cc(C(C)(C)C)cc2C(C)(C)O)c(C(C)(C)O)c1
- T/C (dose: 100.0 mg/kg/injection, schedule: Q01DX001 (ip), vehicle: saline with Tween-80): 101 % of control
- T/C (dose: 200.0 mg/kg/injection, schedule: Q01DX001 (ip), vehicle: saline with Tween-80): 101 % of control
- T/C (dose: 400.0 mg/kg/injection, schedule: Q01DX001 (ip), vehicle: saline with Tween-80): 113 % of control

Structure (SMILES): CCCCNCCC(SS)c1ccc(Cl)cc1 (stereo not given)
- T/C [7]: 104 % of control
- T/C [2]: 100 % of control
